Patent publication US7595345B2, “Vitamin D receptor modulators” (Eli Lilly and Company, priority 2003, dated 2009)
Several values for one entry are separate records, joined by “and”; a condition that tells them apart may be missing. Identical values can stand only once.

Key:
[1] = target: T1, RXR-VDR heterodimer (Gal4-RXR-DEF and VP16-VDR-LBD) (Homo sapiens, UniProt P11473); test: RXR-VDR heterodimerization assay (SaOS-2 cells); assay type: cell-based; details: luciferase reporter pFR-LUC
T1 construct: Add the Gal4-RXR-DEF and VP16-VDR-LBD; expressed in transfected cells; host or cells: SaOs-2 cells
T1 sequence (P11473 127-423 limits assumed): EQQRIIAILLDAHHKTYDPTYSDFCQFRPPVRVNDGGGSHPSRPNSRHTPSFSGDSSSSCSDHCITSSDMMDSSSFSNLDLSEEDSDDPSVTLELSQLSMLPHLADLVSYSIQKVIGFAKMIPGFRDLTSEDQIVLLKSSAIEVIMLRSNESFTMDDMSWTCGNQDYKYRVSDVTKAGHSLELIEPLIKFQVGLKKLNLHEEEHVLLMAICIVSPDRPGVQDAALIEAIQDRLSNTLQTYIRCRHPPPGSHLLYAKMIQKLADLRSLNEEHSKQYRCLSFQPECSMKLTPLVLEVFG
T1 sequence (P19793 201-462 partner limits assumed): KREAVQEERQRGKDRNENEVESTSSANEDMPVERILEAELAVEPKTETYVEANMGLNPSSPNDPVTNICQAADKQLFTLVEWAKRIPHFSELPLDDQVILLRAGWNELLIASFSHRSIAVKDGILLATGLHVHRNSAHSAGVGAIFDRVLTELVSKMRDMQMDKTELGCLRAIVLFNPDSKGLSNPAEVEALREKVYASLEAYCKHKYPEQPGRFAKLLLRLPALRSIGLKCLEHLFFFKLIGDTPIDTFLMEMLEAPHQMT
Source text: 1. The RXR-VDR Heterodimer Assay:
This assay provides the VDR activity of a test compound.
This is an in vitro efficacy assay for psoriasis, abscess and adhesion. Psoriasis involves both keratinocytes and immune cells. IL-10 is a unique cytokine because it is anti-inflammatory and immunosuppressive. This assay tells us whether a VDRM is able to function as an agonist in PBMCs (primary blood mononuclear cells) or not. […] 7. Other Compound Assay Standards An alternative measure of the efficacy of compounds of the invention for treatment of osteoporosis is a numerical ratio calculated as follows: • Dose Threshold needed to induce hypercalcemia • divided by • Dose Threshold needed for bone efficacy An alternative measure of the efficacy of compounds of the invention for treatment of psoriasis is a numerical ratio calculated as follows: • Dose Threshold needed to induce hypercalcemia • divided by • Dose Threshold needed to induce keratinocyte proliferation For the above ratios, Dose Thresholds are determined from dose response curve data. 8. The CaT1 (Calcium Transport Protein 1) Assay The CaT1 Assay is an indicator for the undesirable condition of hypercalcemia. […] Preferred assay results are greater than 1000 nM. Details of the Assay Methods: (1) Materials and Method for RXR-VDR Heterodimerization Assay: Transfection Method:
Grow SaOs-2 cells in T-152 cm^2 culture flasks in growth media.
Keep the density at 5-6×10^5 cells/ml
Passage cells 1:3 twice a week
Resuspend cells in plating media and transfer into growth media.
Transfection/Treatment Media:
D-MEM Low Glucose Without Phenol Red only
T-152 cm^2 culture flask:
Use well plate to plate cells
Use Deep well plate sterile to make up treatment media.
Luciferase Assay Reagent:
Use Steady-Glo Luciferase Reagent from Promega (Cat #E2550) Consists of:
a. E2533 Assay Substrate, lyophilized product and
Aspirate media from culture flask, rinse cells with HBSS and aspirate.
Add trypsin and incubate. […]
Read the plates after drug treatment […]
Count each well using a Luminescence counter, Top Count NXT by Packard […]

[2] = system: KERtr cells; test: Keratinocyte proliferation assay; assay type: cell-based; details: Homo sapiens, 72 hr, BrdU incorporation, read-out: Kera. Prolif. IC50
Method: 5. The Keratinocyte Proliferation Assay
This Assay is indicative for the treatment of psoriasis.
(5) The Keratinocyte Proliferation Assay:
KERtr cells (Human skin keratinocyte transformed with a retrovirus vector, obtained from ATCC) were plated in 96-well flat-bottomed plates (3000 cells/well) in 100 µl keratinocyte serum free medium supplemented with bovine pituitary extract in the absence of EGF (Life Technologies, Rockville, Md.) and incubated at 37° C. for two days. The cells were treated with various concentrations of VDR ligands (ten-fold serial dilution from 10,000 nM to 0.1 nM in triplicate), dissolved in 100 µl keratinocyte serum free medium supplemented with bovine pituitary extract in the absence of EGF and incubated at 37° C. for 72 hr. BrdU (5-bromo-2′-deoxyuridine) incorporation was analyzed as a measure of DNA replication (Cell proliferation ELISA kit, Roche Diagnostics, Indianapolis, Ind.) and absorbance was measured at 405 nm. Potency values (IC50) values were determined as the concentration (nM) of compound that elicited a half-maximal response.

CCC(O)(CC)COc1ccc(C(CC)(CC)c2ccc(C(=O)NCC(=O)O)c(C)c2)cc1C [Ex. 3, (4-{1-ethyl-1-[4-(2-ethyl-2-hydroxy-butoxy)-3-methyl-phenyl]-propyl}-2-methyl-benzoylamino)-acetic acid]
EC50 [1]: 301 nM and 149 nM | IC50 [2]: 121 nM

CCC(CC)(c1ccc(OCC(O)(C(C)C)C(C)C)c(C)c1)c1ccc(C(=O)NCC(=O)O)c(C)c1 [Ex. 4, (4-{1-Ethyl-1-[4-(2-hydroxy-2-isopropyl-3-methyl-butoxy)-3-methyl-phenyl]-propyl}-2-methyl-benzoylamino)-acetic acid]
EC50 [1]: 257 nM and 127 nM
